Assay: Determination of the thickener performance in mixture A
Type: physicochemical
Settings: for Viscosity: 1% by weight added to mixture A (15% by weight in water, sodium laureth-2 sulfate:cocobetain 8:2), mixture A alone 135; for thickener performance (in words): 1% by weight in mixture A, summary of Table 1
Text: Using Genapol® LRO (sodium laureth-2 sulfate, 27% by weight in water) and Genagen® KB (cocobetain, 30% by weight in water) and additionally water, a 15% by weight mixture in water comprising the two surfactants in a weight ratio of 8:2 (hereinbelow referred to as “mixture A”) is obtained.

Compound	Viscosity [mPa · s]	thickener performance (in words)
O[C@@H]1CO[C@H]2[C@@H]1OC[C@@H]2O [isosorbide]	160	not worth mentioning
isosorbide dicaprylate	2390	significant thickening

Reference: patent US9968536B2, “Composition comprising isosorbide monoesters and isosorbide diesters” (Clariant International Ltd., priority 2011, dated 2018)
